Experiments:
BMX = target: T1, BMX (Homo sapiens, UniProt P51813); assay: Kinase inhibitor profiling, pEY phosphorylation; assay type: biochemical
T1 construct: specificity data for proteins generated from a library of eighteen full-length clones; host or cells: rabbit reticulocyte lysate, TnT coupled in vitro transcription/translation (cell-free)
T1 sequence (P51813 1-675): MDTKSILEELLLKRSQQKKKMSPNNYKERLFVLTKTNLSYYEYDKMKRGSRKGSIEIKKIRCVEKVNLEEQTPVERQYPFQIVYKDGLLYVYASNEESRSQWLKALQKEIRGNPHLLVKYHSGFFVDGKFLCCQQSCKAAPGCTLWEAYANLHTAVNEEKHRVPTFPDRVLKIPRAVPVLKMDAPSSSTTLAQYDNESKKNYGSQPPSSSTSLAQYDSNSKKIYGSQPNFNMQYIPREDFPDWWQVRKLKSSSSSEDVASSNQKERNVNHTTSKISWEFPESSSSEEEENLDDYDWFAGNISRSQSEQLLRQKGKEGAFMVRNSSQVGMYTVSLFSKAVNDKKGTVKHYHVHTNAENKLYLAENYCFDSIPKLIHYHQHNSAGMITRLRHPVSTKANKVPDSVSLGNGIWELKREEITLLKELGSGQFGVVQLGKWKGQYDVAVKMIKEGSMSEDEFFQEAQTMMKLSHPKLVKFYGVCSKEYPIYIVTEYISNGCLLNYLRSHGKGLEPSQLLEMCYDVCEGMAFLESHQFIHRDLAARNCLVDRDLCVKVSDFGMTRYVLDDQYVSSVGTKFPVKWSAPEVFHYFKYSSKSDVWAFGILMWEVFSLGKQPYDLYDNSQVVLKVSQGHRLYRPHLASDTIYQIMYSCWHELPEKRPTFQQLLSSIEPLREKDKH

PTK2B = target: T2, PTK2B (Homo sapiens, UniProt Q14289); assay: Kinase inhibitor profiling, pEY phosphorylation; assay type: biochemical
T2 construct: specificity data for proteins generated from a library of eighteen full-length clones; host or cells: rabbit reticulocyte lysate, TnT coupled in vitro transcription/translation (cell-free)
T2 sequence (Q14289 whole entry): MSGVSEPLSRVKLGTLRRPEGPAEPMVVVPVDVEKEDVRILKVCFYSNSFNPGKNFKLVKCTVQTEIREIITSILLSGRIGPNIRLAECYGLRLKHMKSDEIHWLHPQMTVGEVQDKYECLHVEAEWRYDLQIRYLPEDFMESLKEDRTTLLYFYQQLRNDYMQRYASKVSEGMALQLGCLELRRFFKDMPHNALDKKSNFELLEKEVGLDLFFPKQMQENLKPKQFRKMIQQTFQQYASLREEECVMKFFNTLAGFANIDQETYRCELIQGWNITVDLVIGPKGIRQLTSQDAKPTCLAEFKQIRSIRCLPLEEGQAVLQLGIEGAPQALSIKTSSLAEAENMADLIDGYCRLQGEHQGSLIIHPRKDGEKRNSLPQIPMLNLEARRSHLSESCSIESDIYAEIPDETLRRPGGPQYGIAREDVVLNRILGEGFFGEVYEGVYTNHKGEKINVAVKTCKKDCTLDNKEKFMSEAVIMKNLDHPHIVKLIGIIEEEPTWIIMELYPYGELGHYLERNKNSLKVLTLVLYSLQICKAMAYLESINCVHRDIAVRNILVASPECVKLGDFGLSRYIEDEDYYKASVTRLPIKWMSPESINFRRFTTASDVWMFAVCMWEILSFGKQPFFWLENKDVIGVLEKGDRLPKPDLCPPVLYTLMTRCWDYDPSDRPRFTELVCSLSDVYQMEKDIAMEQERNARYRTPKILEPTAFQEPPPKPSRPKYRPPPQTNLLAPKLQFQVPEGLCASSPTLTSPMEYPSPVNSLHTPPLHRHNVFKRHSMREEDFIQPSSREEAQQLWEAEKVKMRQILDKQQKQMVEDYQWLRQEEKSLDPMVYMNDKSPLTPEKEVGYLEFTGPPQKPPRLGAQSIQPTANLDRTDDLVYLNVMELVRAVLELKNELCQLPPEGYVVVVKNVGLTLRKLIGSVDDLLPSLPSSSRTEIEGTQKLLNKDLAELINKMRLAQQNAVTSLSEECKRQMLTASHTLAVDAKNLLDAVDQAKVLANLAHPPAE

Row | SMILES | Inhibition specificity towards pEY phosphorylation at 10X IC50, BMX (BMX) | Inhibition specificity towards pEY phosphorylation at 10X IC50, PTK2B (PTK2B)
1 | COC(=O)c1ccc(NCc2cc(O)ccc2O)cc1 [AG-957] | L (low inhibition (“L”=between 50–75% of the activity remaining)) | –
2 | Cc1cc2ncc(-c3ccc(O)c(O)c3)nc2cc1C [AG-1433] | H (high inhibition (“H”=less than 25% of the activity remaining)) | L (low inhibition (“L”=between 50–75% of the activity remaining))
3 | COc1c(C=O)c(O)cc2c1C(=O)c1ccccc1C2=O [Damnacanthal] | H (high inhibition (“H”=less than 25% of the activity remaining)) | H (high inhibition (“H”=less than 25% of the activity remaining))
4 | Cc1ccc(-c2nn(C(C)(C)C)c3ncnc(N)c23)cc1 [PP1] | L (low inhibition (“L”=between 50–75% of the activity remaining)) | –
5 | COc1cc2ncnc(Nc3ccc(O)cc3)c2cc1OC [WHI-P131] | L (low inhibition (“L”=between 50–75% of the activity remaining)) | L (low inhibition (“L”=between 50–75% of the activity remaining))
